Assay results: patent publication US20190292189A1, “LIM KINASE INHIBITORS” (VIRONGY, LLC, priority 2016, published 2019)
Where two headings read alike, the source gives them in different places.

Columns and labels:
JNK3 = JNK3 (Homo sapiens, UniProt P53779); assay: JNK3 biochemical counter-screen; conditions: Table 6; read-out: Biochemical Inhibition IC50 (nM) JNK3
ROCK-I = ROCK-I (Homo sapiens, UniProt Q13464); assay: ROCK-I biochemical counter-screen; conditions: Table 6; read-out: Biochemical Inhibition IC50 (nM) ROCK-I
ROCK-II = ROCK-II (Homo sapiens, UniProt O75116); assay: ROCK-II biochemical counter-screen; conditions: means of ≥2 experiments, read-out: IC50 (nM) ROCK-II
[1] = Microsomal stability, human liver microsomes; type: in vitro ADME
Limk1 = Limk1 (Homo sapiens, UniProt P53667); assay: Limk1 biochemical assay (Reaction Biology, 10-dose IC50); design: His; purchased Reaction Biology Corporation; host or cells: insect cells
[2] = Plasma pharmacokinetics studies on rats; conditions: rats; for AUC (iv) / Cl (iv) / T1/2 (iv) / Cmax / Yd (iv): iv dosing 1 mg/kg; for Cmax: read-out: Cmax (iv); for F (%) (po): po dosing 2 mg/kg
Protocol: In vivo pharmacokinetics (PK) studies were conducted for selected compounds during the whole optimization at various stages in order to identify structural elements that are favorable for in vivo applications, and/or to evaluate the feasibility of optimized Limk inhibitors for animal studies.

[3] = Microsomal stability, rat liver microsomes; type: in vitro ADME; conditions: rat liver microsomes
HIV-1(NL4-3) = assay: microbe, parasite or virus in culture; type: cell-based; conditions: […]; dosages with no detectable cytotoxicity
P450 1A2 = target: T1, P450 1A2 (Homo sapiens, UniProt P05177)
T1 sequence (P05177 1-516): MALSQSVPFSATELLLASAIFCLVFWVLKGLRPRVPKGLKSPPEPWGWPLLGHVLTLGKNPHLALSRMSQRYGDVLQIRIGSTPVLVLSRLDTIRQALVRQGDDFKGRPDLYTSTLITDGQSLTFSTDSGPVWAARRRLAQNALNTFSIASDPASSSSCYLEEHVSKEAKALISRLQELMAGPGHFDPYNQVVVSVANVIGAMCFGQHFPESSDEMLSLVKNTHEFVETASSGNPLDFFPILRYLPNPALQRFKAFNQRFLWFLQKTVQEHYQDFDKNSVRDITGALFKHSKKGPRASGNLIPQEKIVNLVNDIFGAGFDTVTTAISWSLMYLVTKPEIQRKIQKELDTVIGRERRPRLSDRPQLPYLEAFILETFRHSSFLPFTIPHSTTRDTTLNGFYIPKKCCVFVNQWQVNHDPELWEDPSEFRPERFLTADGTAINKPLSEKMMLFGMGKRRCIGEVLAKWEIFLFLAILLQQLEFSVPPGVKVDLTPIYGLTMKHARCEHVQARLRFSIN

P450 2C9 = P450 2C9 (Homo sapiens, UniProt P11712); assay: P450 inhibition at 10 μM; type: in vitro ADME
P450 3A4 = P450 3A4 (Homo sapiens, UniProt P08684); assay: P450 inhibition at 10 μM; type: in vitro ADME
P450 2D6 = P450 2D6 (Homo sapiens, UniProt P10635); assay: P450 inhibition at 10 μM; type: in vitro ADME
[4] = Table 4, means of ≥2 experiments, read-out: IC50 (nM) Limk1

Chain of Limk1 (P53667 285-638): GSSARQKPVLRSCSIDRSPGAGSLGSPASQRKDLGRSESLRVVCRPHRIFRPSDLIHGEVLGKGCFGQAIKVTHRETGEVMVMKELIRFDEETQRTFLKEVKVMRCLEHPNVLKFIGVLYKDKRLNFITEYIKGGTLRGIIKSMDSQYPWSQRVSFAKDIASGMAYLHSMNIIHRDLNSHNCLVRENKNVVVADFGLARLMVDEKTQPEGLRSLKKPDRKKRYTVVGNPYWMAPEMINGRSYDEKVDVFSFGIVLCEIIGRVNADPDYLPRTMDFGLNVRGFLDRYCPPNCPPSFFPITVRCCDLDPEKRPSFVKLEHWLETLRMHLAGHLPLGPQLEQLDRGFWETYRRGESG
Chain of ROCK-I (Q13464 whole entry, species assumed): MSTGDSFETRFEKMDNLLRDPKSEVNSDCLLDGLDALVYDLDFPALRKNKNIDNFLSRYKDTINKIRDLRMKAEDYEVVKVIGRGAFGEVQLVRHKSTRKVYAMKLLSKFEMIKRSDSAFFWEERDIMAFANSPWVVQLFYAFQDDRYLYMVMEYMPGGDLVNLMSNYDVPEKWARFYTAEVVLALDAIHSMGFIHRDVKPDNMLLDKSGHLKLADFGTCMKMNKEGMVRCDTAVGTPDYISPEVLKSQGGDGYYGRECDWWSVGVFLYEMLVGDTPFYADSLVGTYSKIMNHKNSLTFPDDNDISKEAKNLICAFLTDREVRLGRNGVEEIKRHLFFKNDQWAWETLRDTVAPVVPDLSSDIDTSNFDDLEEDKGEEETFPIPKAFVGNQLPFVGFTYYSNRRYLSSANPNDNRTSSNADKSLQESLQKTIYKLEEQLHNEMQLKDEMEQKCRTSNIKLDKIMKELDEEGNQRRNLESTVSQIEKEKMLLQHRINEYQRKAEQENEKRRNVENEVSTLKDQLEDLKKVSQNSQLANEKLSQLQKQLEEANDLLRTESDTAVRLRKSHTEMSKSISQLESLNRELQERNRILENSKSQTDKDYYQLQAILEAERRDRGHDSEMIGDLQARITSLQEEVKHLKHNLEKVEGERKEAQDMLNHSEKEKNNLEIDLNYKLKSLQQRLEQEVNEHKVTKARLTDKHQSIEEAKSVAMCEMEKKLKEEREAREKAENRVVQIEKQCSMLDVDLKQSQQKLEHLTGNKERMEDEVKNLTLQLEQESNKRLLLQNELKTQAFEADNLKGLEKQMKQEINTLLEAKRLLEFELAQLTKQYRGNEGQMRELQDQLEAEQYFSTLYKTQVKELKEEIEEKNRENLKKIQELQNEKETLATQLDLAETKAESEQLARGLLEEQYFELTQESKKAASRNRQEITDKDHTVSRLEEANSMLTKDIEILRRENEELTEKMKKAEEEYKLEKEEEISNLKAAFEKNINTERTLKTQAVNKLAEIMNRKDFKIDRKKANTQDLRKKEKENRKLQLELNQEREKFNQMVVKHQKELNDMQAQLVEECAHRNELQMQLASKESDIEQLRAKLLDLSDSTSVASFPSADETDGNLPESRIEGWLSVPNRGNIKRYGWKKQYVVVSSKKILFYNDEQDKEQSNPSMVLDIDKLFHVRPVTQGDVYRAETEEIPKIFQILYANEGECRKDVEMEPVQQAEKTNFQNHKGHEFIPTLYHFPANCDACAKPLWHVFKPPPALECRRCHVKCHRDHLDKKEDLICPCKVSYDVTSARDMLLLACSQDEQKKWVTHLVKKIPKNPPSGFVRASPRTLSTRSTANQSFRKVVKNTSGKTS
Chain of ROCK-II (O75116 whole entry, species assumed): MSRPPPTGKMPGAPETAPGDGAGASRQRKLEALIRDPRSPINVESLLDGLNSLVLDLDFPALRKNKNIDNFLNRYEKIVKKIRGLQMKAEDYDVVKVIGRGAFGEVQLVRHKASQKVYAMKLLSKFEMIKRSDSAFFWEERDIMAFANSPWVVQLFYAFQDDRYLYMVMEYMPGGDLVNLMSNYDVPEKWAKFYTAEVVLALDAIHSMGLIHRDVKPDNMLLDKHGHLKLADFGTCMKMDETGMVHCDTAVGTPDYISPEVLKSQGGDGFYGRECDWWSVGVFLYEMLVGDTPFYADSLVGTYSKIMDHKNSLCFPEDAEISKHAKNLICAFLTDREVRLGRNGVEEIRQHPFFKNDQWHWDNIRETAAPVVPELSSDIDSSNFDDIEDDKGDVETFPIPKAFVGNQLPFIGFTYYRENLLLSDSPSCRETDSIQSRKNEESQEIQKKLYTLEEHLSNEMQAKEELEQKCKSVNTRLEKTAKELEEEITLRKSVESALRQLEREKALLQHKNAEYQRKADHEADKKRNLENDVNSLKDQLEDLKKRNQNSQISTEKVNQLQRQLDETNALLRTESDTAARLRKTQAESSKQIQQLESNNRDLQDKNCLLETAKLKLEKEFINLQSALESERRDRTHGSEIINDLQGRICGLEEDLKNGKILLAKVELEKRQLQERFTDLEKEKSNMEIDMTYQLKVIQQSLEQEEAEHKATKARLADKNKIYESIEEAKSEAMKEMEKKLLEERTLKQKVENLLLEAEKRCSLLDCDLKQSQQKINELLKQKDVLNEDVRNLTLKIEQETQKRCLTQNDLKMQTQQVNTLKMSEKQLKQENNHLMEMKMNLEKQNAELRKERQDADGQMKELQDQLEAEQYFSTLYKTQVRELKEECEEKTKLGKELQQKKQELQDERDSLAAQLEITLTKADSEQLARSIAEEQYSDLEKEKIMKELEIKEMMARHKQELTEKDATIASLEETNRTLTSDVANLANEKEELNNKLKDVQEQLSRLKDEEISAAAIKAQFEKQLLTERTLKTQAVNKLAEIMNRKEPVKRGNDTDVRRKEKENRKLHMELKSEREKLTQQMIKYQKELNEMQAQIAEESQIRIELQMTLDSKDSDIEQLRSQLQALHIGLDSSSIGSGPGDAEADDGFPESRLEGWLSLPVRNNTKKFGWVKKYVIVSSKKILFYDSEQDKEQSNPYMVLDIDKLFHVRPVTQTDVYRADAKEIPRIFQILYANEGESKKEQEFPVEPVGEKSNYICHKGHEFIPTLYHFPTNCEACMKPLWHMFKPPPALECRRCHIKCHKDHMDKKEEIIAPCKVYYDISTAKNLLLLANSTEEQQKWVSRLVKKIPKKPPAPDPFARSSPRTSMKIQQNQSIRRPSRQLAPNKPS
Chain of P450 3A4 (P08684 whole entry): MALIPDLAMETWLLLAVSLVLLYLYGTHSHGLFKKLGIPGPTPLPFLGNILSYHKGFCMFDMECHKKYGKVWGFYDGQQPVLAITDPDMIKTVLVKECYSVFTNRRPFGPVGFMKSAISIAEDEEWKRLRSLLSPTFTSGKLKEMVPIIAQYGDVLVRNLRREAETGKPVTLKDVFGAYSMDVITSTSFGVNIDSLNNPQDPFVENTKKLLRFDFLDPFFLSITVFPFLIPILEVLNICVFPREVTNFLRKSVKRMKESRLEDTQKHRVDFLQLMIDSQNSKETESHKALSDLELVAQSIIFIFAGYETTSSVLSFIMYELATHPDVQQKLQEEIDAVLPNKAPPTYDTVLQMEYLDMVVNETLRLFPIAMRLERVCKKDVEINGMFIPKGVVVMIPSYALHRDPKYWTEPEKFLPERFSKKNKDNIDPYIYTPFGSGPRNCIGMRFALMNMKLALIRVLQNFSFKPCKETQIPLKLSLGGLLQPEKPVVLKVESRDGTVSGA
Chain of JNK3 (P53779 whole entry, species assumed): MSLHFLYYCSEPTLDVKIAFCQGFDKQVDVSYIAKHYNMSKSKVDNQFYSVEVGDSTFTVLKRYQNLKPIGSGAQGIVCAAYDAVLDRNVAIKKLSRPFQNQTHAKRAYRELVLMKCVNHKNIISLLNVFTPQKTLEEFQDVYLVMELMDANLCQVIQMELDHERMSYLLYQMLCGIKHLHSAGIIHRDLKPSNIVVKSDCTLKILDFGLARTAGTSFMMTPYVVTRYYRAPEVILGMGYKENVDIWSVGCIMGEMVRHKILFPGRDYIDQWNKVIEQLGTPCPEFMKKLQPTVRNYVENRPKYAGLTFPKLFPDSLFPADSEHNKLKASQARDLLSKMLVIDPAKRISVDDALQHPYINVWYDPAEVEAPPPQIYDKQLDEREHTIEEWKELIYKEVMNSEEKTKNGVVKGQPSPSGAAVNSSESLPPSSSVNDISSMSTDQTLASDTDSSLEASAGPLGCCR
Chain of P450 2C9 (P11712 whole entry): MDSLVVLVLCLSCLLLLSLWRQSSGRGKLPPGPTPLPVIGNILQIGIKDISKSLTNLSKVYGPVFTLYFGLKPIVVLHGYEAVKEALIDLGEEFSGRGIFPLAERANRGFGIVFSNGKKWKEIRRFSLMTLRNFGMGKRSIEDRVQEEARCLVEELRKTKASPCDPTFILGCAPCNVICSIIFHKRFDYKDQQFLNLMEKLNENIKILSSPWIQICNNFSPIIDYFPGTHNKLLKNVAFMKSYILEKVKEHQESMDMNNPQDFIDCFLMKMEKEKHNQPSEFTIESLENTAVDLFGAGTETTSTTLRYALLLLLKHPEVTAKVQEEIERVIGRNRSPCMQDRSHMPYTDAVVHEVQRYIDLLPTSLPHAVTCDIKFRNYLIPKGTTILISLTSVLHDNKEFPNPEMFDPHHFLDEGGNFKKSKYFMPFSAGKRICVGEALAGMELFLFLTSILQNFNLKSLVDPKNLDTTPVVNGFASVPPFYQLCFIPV
Chain of P450 2D6 (P10635 whole entry): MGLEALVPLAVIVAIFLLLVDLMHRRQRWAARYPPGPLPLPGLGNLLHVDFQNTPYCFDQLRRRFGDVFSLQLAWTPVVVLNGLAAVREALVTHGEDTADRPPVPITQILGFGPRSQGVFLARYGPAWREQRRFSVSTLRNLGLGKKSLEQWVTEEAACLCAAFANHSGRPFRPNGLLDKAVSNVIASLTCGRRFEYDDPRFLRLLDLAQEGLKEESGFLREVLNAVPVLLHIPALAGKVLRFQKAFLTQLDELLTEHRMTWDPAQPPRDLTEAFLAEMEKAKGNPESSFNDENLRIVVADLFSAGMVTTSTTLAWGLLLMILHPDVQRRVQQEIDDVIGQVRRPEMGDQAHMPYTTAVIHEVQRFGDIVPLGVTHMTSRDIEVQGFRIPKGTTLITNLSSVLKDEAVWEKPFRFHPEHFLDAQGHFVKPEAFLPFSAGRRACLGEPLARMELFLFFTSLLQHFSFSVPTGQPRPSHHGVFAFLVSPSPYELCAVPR

Row | SMILES | IC50 (JNK3) | IC50 (ROCK-I) | IC50 (ROCK-II; Table 4) | Microsomal Stability t1/2 (min) Human [1] | AUC (iv) [2] | Cl (iv) [2] | T1/2 (iv) [2] | Cmax [2] | Microsomal Stability t1/2 (min) Rat [3] | X4 HIV infection (screen) (HIV-1(NL4-3)) | IC50 (Limk1; Table 8, read-out: LIMK1 IC50) | P450 % inh. at 10 μM 1A2 (P450 1A2; 10 μM) | P450 % inh. at 10 μM 2C9 (P450 2C9) | P450 % inh. at 10 μM 3A4 (P450 3A4) | P450 % inh. at 10 μM 2D6 (P450 2D6) | other results
1 | COc1ccc(N(CCO)C(=O)Nc2ccc(-c3ncnc4[nH]cc(C)c34)cc2)cc1 [Compound 18n, 1-(2-hydroxyethyl)-1-(4-methoxyphenyl)-3-(4-(5-methyl-7H-pyrrolo[2,3-d]pyrimidin-4-yl)phenyl)urea] | > 10000 nM | > 20000 nM | > 10000 nM | 56 min | 19.4 µM·h | 2.1 mL/min/kg | 132 min | 10.6 µM | 40 min |  |  |  |  |  |  | IC50 (Limk1; [4]): 53 nM
2 | Cc1c[nH]c2ncnc(-c3ccc(-c4nc5ccc(C(=O)NC6CCCC6)cc5[nH]4)c(F)c3)c12 [Compound R8584] |  |  |  |  |  |  |  |  |  | blocked | 50 ± 7 nM |  |  |  |  | 
3 | CC1(c2nc3ccc(C(=O)NC4CCC4)cc3[nH]2)CCN(c2ncnc3[nH]ccc23)CC1 [Compound R8482] |  |  |  |  |  |  |  |  |  | blocked | 41 ± 4 nM |  |  |  |  | 
4 | CC(C)NC(=O)c1ccc2[nH]c(N3CCN(c4ncnc5[nH]cc(Cl)c45)C[C@@H]3C)nc2c1 [Compound R10543] |  |  |  |  |  |  |  |  |  | blocked | 5 ± 2 nM |  |  |  |  | 
5 | Cc1ccc(N(CCO)C(=O)Nc2ccc(-c3ncnc4[nH]cc(C)c34)cc2)cc1 [Compound 18k, 1-(2-Hydroxyethyl)-3-(4-(5-methyl-7H-pyrrolo[2,3-d]pyrimidin-4-yl)phenyl)-1-p-tolylurea] | > 10000 nM | 7630 nM | 5930 nM | 56 min | 15.6 µM·h | 2.7 mL/min/kg | 108 min | 9.4 µM | 39 min |  |  | −5% | 24% | 5% | −4% | IC50 (Limk1; [4]): 37 nM; Yd (iv) [2]: 0.3 L/kg; F (%) (po) [2]: 24%
6 | Cc1[nH]c2ncnc(-c3ccc(NC(=O)Nc4cccc(C(=O)NC(C)C)c4)cc3)c2c1C [Compound 7i, 3-(3-(4-(5,6-Dimethyl-7H-pyrrolo[2,3-d]pyrimidin-4-yl)phenyl)ureido)-N-isopropylbenzamide] |  | > 20000 nM |  | 47 min |  |  |  |  | >120 min |  |  | 77% | 42% | 42% | 34% | IC50 (ROCK-II; Table 1): > 10000 nM; IC50 (Limk1; Table 1, means of ≥2 experiments, read-out: IC50 (nM) Limk1): 80 nM
7 | Cc1[nH]c2ncnc(-c3ccc(NC(=O)N(CCO)c4ccc(Cl)cc4)c(F)c3)c2c1C [Compound 18s, 1-(4-Chlorophenyl)-3-(4-(5,6-dimethyl-7H-pyrrolo[2,3-d]pyrimidin-4-yl)-2-fluorophenyl)-1-(2-hydroxyethyl)urea] | > 10000 nM |  |  | 99 min | 14.5 µM·h | 4.5 mL/min/kg | 192 min | 12.3 µM | 44 min |  |  | 40% | 13% | 16% | 8% | Yd (iv) [2]: 0.5 L/kg; F (%) (po) [2]: 29%
8 | Cc1c[nH]c2ncnc(N3CCC(c4nc5cc(C#N)ccc5[nH]4)CC3)c12 [Compound R8212] |  |  |  |  |  |  |  |  |  | blocked | 44 ± 6 nM |  |  |  |  | 
9 | Cc1[nH]c2ncnc(-c3ccc(NC(=O)N(CCN)c4ccc(Cl)cc4)c(F)c3)c2c1C [Compound 18t, 1-(2-Amino-ethyl)-1-(4-chloro-phenyl)-3-[4-(5,6-dimethyl-7H-pyrrolo[2,3-d]pyrimidin-4-yl)-2-fluoro-phenyl]-urea] | > 10000 nM |  |  | >120 min |  |  |  |  | >120 min |  |  | 24% | 24% | −11% | 52% | 
10 | Cc1c[nH]c2ncnc(-c3ccc(NC(=O)Nc4cccc(C(=O)NC(C)C)c4)c(F)c3)c12 [Compound 7k, 3-(3-(2-Fluoro-4-(5-methyl-7H-pyrrolo[2,3-d]pyrimidin-4-yl)phenyl)ureido)-N-isopropylbenzamide] |  | 2390 nM |  | 27 min | 5.5 µM·h | 7.1 mL/min/kg | 90 min | 5.1 µM | 55 min |  |  | 29% | 35% | 32% | 13% | IC50 (ROCK-II; Table 2): 781 nM; IC50 (Limk1; read-out: Limk1 IC50): 18 nM; Yd (iv) [2]: 0.7 L/kg; F (%) (po) [2]: 0%
11 | Cc1c[nH]c2ncnc(-c3ccc(NC(=O)N(CCO)c4ccc(F)cc4)cc3)c12 [Compound 18e, 1-(4-Fluorophenyl)-1-(2-hydroxyethyl)-3-(4-(5-methyl-7H-pyrrolo[2,3-d]pyrimidin-4-yl)phenyl)urea] | > 10000 nM | 3920 nM | 3240 nM | 44 min |  |  |  |  | 52 min |  |  | −4% | 13% | 25% | 3% | 
12 | COc1cccc(N(CCO)C(=O)Nc2ccc(-c3ncnc4[nH]cc(C)c34)cc2)c1 [Compound 18m, 1-(2-Hydroxyethyl)-1-(3-methoxyphenyl)-3-(4-(5-methyl-7H-pyrrolo[2,3-d]pyrimidin-4-yl)phenyl)urea] |  | 4320 nM | 3220 nM | 38 min |  |  |  |  | 21 min |  |  |  | 17% | 44% | 3% | P450 % inh. at 10 μM 1A2 (P450 1A2): 3/17/3/44%; IC50 (Limk1; [4]): 100 nM
13 | CCOC(=O)c1ccc2nc(N3CCN(c4ncnc5[nH]cc(Cl)c45)[C@H](C)C3)[nH]c2c1 [Compound R10659] |  |  |  |  |  |  |  |  |  | blocked | 45 ± 6 nM |  |  |  |  | 
